Structures can show the parent of a compound that is named as a salt.
Assays:
MET (human) = MET (human) (Homo sapiens, UniProt P08581); assay: MET kinase AlphaScreen assay (Km of ATP); assay type: biochemical; conditions: ATP at Km; at least duplicate experiments
Method in brief: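 Biotinylated poly(Glu,Tyr) (200 ng/μL) phosphorylated by MET with ATP at an enzyme-optimized level, in 50 mM HEPES pH 7.4 with Mg2+/Mn2+ and vanadate, 1% DMSO. Reaction runs 60 min at RT. PT66 AlphaScreen donor/acceptor beads are added and signal is read after 1 h.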

RON (human) = RON (human) (Homo sapiens, UniProt Q04912); assay: RON kinase AlphaScreen assay (Km of ATP); assay type: biochemical; conditions: ATP at Km; at least duplicate experiments
Method in brief: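 Human RON phosphorylated biotinylated poly(Glu,Tyr) (200 ng/μL) at Km ATP in 50 mM HEPES pH 7.4, 12.5 mM MgCl2, 1% glycerol, 0.334 mM vanadate, 1% DMSO. Reaction ran 30 min at RT after enzyme addition. Product was detected by AlphaScreen with PT66 beads after 1 h.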

Chain of RON (human) (Q04912 25-1400): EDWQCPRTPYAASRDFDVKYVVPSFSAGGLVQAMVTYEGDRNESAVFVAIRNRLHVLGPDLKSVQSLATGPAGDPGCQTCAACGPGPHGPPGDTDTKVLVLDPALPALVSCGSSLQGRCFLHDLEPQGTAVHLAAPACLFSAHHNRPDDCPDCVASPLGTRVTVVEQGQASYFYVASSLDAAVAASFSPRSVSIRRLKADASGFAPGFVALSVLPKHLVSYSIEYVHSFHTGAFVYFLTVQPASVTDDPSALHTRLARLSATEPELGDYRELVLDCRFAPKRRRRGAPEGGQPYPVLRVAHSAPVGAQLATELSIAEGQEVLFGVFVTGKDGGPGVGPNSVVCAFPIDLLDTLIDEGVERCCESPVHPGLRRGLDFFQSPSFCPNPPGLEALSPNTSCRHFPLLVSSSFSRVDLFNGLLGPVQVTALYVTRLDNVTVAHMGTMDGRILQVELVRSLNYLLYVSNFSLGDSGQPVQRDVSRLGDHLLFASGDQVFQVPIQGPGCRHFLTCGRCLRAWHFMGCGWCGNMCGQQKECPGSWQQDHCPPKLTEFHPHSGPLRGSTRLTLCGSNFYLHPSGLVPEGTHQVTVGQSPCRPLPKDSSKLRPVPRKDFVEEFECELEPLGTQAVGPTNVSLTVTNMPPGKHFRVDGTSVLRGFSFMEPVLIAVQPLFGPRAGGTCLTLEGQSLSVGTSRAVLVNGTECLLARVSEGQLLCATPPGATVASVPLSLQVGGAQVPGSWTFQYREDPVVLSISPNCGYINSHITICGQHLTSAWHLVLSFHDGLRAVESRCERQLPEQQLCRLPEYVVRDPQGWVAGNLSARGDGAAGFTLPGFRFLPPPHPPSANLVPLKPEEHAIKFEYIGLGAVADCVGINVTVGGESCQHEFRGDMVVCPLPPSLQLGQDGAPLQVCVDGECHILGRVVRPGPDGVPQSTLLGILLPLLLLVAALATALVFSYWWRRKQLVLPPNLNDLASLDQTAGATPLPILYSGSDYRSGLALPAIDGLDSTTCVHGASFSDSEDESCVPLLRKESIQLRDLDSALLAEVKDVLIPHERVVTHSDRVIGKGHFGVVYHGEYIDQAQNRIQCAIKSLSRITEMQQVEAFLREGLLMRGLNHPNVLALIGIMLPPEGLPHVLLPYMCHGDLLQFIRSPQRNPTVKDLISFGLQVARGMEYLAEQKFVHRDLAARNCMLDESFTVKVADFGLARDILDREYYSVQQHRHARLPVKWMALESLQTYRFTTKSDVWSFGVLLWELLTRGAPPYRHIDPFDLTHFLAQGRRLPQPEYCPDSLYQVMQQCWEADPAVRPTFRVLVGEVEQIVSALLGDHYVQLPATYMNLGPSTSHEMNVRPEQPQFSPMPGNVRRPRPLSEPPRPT
Chain of MET (human) (P08581 25-1390): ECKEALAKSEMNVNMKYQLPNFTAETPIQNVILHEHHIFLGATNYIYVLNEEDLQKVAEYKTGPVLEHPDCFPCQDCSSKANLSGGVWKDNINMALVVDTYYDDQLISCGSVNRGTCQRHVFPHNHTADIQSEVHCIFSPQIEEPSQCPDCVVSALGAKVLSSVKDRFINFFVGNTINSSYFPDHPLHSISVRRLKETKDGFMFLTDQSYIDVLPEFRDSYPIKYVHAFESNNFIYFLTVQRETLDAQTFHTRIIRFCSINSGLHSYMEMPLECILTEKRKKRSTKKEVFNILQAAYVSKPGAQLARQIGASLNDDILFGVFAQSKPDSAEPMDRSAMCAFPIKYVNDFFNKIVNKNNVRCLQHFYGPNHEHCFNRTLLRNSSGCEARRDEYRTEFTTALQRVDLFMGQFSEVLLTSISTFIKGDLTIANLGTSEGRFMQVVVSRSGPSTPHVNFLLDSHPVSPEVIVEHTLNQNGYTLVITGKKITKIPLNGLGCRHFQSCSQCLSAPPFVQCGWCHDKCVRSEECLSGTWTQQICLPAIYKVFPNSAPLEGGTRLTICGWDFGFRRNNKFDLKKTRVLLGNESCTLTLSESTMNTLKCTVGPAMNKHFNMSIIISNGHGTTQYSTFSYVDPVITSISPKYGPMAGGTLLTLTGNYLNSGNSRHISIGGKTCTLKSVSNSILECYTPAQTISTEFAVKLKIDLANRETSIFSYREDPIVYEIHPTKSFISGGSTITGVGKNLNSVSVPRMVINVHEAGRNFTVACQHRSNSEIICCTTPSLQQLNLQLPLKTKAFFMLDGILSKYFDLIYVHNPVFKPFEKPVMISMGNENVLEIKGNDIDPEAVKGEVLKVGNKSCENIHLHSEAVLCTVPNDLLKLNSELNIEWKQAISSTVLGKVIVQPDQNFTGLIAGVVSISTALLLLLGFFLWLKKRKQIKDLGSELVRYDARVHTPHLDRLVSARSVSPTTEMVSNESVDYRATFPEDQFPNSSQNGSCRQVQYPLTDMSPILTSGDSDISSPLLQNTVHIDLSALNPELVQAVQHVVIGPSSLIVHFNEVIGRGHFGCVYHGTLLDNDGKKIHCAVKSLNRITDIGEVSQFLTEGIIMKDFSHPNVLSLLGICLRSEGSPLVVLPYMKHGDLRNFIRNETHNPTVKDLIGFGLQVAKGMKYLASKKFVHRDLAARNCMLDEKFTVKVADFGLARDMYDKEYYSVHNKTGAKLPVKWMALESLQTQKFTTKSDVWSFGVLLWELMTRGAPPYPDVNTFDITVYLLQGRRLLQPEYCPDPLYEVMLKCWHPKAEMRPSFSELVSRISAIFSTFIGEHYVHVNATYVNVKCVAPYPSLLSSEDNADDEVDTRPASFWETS

Structure (SMILES) | IC50 (MET (human)) | IC50 (RON (human))
Nc1ncc(-c2cccc(C(=O)N[C@H]3CCCC[C@@H]3O)c2)cc1-c1nc2ccccc2s1 [Example 221, 3-(6-Amino-5-benzothiazol-2-ylpyridin-3-yl)-N-((1S,2S)-2-hydroxycyclohexyl)benzamide] | 1 to 20 µM | 1 to 20 µM
Nc1ncc(-c2cccc(C(=O)N3CCC(O)C3)c2)cc1-c1nc2ccccc2s1 (stereo not shown) [Example 222, [3-(6-Amino-5-benzothiazol-2-ylpyridin-3-yl)phenyl]-(3-hydroxypyrrolidin-1-yl)methanone] | 1 to 20 µM | 1 to 20 µM
Nc1ncc(-c2cccc(C(=O)NCCCn3ccnc3)c2)cc1-c1nc2ccccc2s1 [Example 223, 3-(6-Amino-5-benzothiazol-2-ylpyridin-3-yl)-N-(3-imidazol-1-ylpropyl)benzamide] | 1 to 20 µM | 1 to 20 µM
CN(C)C1CCN(C(=O)c2cccc(-c3cnc(N)c(-c4nc5ccccc5s4)c3)c2)C1 (stereo not shown) [Example 224, [3-(6-Amino-5-benzothiazol-2-ylpyridin-3-yl)phenyl]-(3-dimethylaminopyrrolidin-1-yl)methanone] | 0.1 to 1 µM | 1 to 20 µM
Nc1ncc(-c2cccc(C(=O)NCCCN3CCOCC3)c2)cc1-c1nc2ccccc2s1 [Example 225, 3-(6-Amino-5-benzothiazol-2-ylpyridin-3-yl)-N-(3-morpholin-4-ylpropyl)benzamide] | 1 to 20 µM | 1 to 20 µM
CN1CCCN(C(=O)c2cccc(-c3cnc(N)c(-c4nc5ccccc5s4)c3)c2)CC1 [Example 226, [3-(6-Amino-5-benzothiazol-2-ylpyridin-3-yl)phenyl]-(4-methyl-[1,4]diazepan-1-yl)methanone] | 0.1 to 1 µM | 1 to 20 µM
Nc1ncc(-c2cccc(C(=O)N3CCC(F)(F)C3)c2)cc1-c1nc2ccccc2s1 [Example 227, [3-(6-Amino-5-benzothiazol-2-ylpyridin-3-yl)phenyl]-(3,3-difluoropyrrolidin-1-yl)methanone] | 1 to 20 µM | 1 to 20 µM
C[C@@H]1CN(C(=O)c2cccc(-c3cnc(N)c(-c4nc5ccccc5s4)c3)c2)C[C@H](C)N1C [Example 228, [3-(6-Amino-5-benzothiazol-2-ylpyridin-3-yl)phenyl]-(cis-3,4,5-trimethylpiperazin-1-yl)methanone] | 0.1 to 1 µM | 1 to 20 µM
Nc1ncc(-c2cc3ccccc3[nH]2)cc1-c1nc2ccccc2s1 [Example 229, 3-(1,3-Benzothiazol-2-yl)-5-(1H-indol-2-yl)pyridin-2-amine] | 1 to 20 µM | 1 to 20 µM
Nc1ncc(-c2ccc[nH]2)cc1-c1nc2ccccc2s1 [Example 230, 3-(1,3-Benzothiazol-2-yl)-5-(1H-pyrrol-2-yl)pyridin-2-amine] | 1 to 20 µM | 1 to 20 µM
CS(=O)(=O)Nc1ccc(-c2cnc(N)c(-c3nc4ccccc4s3)c2)cc1 [Example 231, N-4-[6-Amino-5-(1,3-benzothiazol-2-yl)pyridin-3-yl]phenylmethanesulfonamide] | 1 to 20 µM | 1 to 20 µM
Nc1ncc(C2=CCNCC2)cc1-c1nc2ccccc2s1 [Example 232, 5-(1,3-Benzothiazol-2-yl)-1′,2′,3′,6′-tetrahydro-3,4′-bipyridin-6-amine] | 0.1 to 1 µM | 1 to 20 µM
Nc1ncc(-c2cccc(O)c2)cc1-c1nc2ccccc2s1 [Example 233, 3-[6-Amino-5-(1,3-benzothiazol-2-yl)pyridin-3-yl]phenol] | 1 to 20 µM | > 20 µM
COC(=O)COc1cccc(-c2cnc(N)c(-c3nc4ccccc4s3)c2)c1 [Example 234, Methyl 3-[6-amino-5-(1,3-benzothiazol-2-yl)pyridin-3-yl]phenoxyacetate] | 1 to 20 µM | > 20 µM
Nc1ncc(-c2cccc(OCC(=O)O)c2)cc1-c1nc2ccccc2s1 [Example 235, [3-(6-Amino-5-benzothiazol-2-yl-pyridin-3-yl)-phenoxy]acetic acid] | 1 to 20 µM | 1 to 20 µM
CCOC(=O)COc1ccc(-c2cnc(N)c(-c3nc4ccccc4s3)c2)cc1 [Example 236, Ethyl 4-[6-amino-5-(1,3-benzothiazol-2-yl)pyridin-3-yl]phenoxyacetate] | 1 to 20 µM | 1 to 20 µM
Nc1ncc(-c2ccc(OCC(=O)O)cc2)cc1-c1nc2ccccc2s1 [Example 237, 4-[6-Amino-5-(1,3-benzothiazol-2-yl)pyridin-3-yl]phenoxyacetic acid] | 0.1 to 1 µM | 1 to 20 µM
CNC(=O)COc1ccc(-c2cnc(N)c(-c3nc4ccccc4s3)c2)cc1 [Example 238, 2-[4-(6-Amino-5-benzothiazol-2-ylpyridin-3-yl)-phenoxy]-N-methylacetamide] | 1 to 20 µM | 1 to 20 µM

Structure (SMILES) | IC50 (MET (human)) | IC50 (RON (human))
CN(C)C(=O)COc1ccc(-c2cnc(N)c(-c3nc4ccccc4s3)c2)cc1 [Example 239, 2-[4-(6-Amino-5-benzothiazol-2-ylpyridin-3-yl)-phenoxy]-N,N-dimethylacetamide] | 1 to 20 µM | 1 to 20 µM
Nc1ncc(-c2ccc(OCC(=O)NCc3ccccc3)cc2)cc1-c1nc2ccccc2s1 [Example 240, 2-[4-(6-Amino-5-benzothiazol-2-ylpyridin-3-yl)-phenoxy]-N-benzylacetamide] | 1 to 20 µM | 1 to 20 µM
Nc1ncc(-c2ccc(OCC(=O)N3CCCC3)cc2)cc1-c1nc2ccccc2s1 [Example 241, 2-[4-(6-Amino-5-benzothiazol-2-ylpyridin-3-yl)phenoxy]-1-pyrrolidin-1-ylethanone] | 1 to 20 µM | > 20 µM
Nc1ncc(-c2ccc(OCC(=O)NCCCN3CCCC3=O)cc2)cc1-c1nc2ccccc2s1 [Example 242, 2-[4-(6-Amino-5-benzothiazol-2-ylpyridin-3-yl)-phenoxy]-N-[3-(2-oxopyrrolidin-1-yl)-propyl]acetamide] | 1 to 20 µM | 1 to 20 µM
Nc1ncc(-c2ccc(OCC(=O)NC3CCCCC3O)cc2)cc1-c1nc2ccccc2s1 (stereo not shown) [Example 243, 2-[4-(6-Amino-5-benzothiazol-2-ylpyridin-3-yl)phenoxy]-N-(2-hydroxycyclohexyl)acetamide] | 1 to 20 µM | > 20 µM
Nc1ncc(-c2ccc(OCC(=O)N3CCOCC3)cc2)cc1-c1nc2ccccc2s1 [Example 244, 2-[4-(6-Amino-5-benzothiazol-2-ylpyridin-3-yl)phenoxy]-1-morpholin-4-ylethanone] | 1 to 20 µM | > 20 µM
Nc1ncc(-c2ccc(OCC(=O)NCC3CCCCC3)cc2)cc1-c1nc2ccccc2s1 [Example 245, 2-[4-(6-Amino-5-benzothiazol-2-ylpyridin-3-yl)phenoxy]-N-cyclohexylmethylacetamide] | 1 to 20 µM | > 20 µM
Nc1ncc(-c2ccc(OCC(=O)N3CCN(CCO)CC3)cc2)cc1-c1nc2ccccc2s1 [Example 246, 2-[4-(6-Amino-5-benzothiazol-2-yl-pyridin-3-yl)phenoxy]-1-[4-(2-hydroxyethyl)piperazin-1-yl]ethanone] | 0.1 to 1 µM | 1 to 20 µM
Nc1ncc(-c2cnn(C3CCNCC3)c2)cc1-c1nc2cccc(-c3cn[nH]c3)c2s1 [Example 247, 5-(1-Piperidin-4-yl-1H-pyrazol-4-yl)-3-[7-(1H-pyrazol-4-yl)benzothiazol-2-yl]pyridin-2-ylamine dihydrochloride] | ≤ 0.1 µM | 0.1 to 1 µM
Cn1cc(-c2cccc3nc(-c4cc(-c5cnn(C6CCNCC6)c5)cnc4N)sc23)cn1 [Example 248, 3-[7-(1-Methyl-1H-pyrazol-4-yl)benzothiazol-2-yl]-5-(1-piperidin-4-yl-1H-pyrazol-4-yl)pyridin-2-ylamine dihydrochloride] | 0.1 to 1 µM | 0.1 to 1 µM
Nc1ncc(-c2cnn(C3CCNCC3)c2)cc1-c1nc2cccc(-c3ccc[nH]3)c2s1 [Example 249, 5-(1-Piperidin-4-yl-1H-pyrazol-4-yl)-3-[7-(1H-pyrrol-2-yl)benzothiazol-2-yl]pyridin-2-ylamine dihydrochloride] | ≤ 0.1 µM | 0.1 to 1 µM
Nc1ncc(-c2cnn(C3CCNCC3)c2)cc1-c1nc2cccc(-c3cccnc3)c2s1 [Example 250, 5-(1-Piperidin-4-yl-1H-pyrazol-4-yl)-3-(7-pyridin-3-ylbenzothiazol-2-yl)pyridin-2-ylamine dihydrochloride] | ≤ 0.1 µM | 0.1 to 1 µM
Nc1ncc(-c2cnn(C3CCNCC3)c2)cc1-c1nc2cccc(-c3cc[nH]c3)c2s1 [Example 251, 5-(1-Piperidin-4-yl-1H-pyrazol-4-yl)-3-[7-(1H-pyrrol-3-yl)benzothiazol-2-yl]pyridin-2-ylamine trifluoroacetate] | 0.1 to 1 µM | 0.1 to 1 µM
Nc1ncc(-c2cnn(C3CCNCC3)c2)cc1-c1nc2ccc(F)cc2s1 [Example 252, 3-(6-Fluorobenzothiazol-2-yl)-5-(1-piperidin-4-yl-1H-pyrazol-4-yl)-pyridin-2-ylamine] | 0.1 to 1 µM | 0.1 to 1 µM
Nc1ncc(-c2cnn(C3CCNCC3)c2)cc1-c1nc2ccc(Cl)cc2s1 [Example 253, 3-(6-Chlorobenzothiazol-2-yl)-5-(1-piperidin-4-yl-1H-pyrazol-4-yl)-pyridin-2-ylamine] | 0.1 to 1 µM | 0.1 to 1 µM
Cc1ccc2nc(-c3cc(-c4cnn(C5CCNCC5)c4)cnc3N)sc2c1 [Example 254, 3-(6-Methylbenzothiazol-2-yl)-5-(1-piperidin-4-yl-1H-pyrazol-4-yl)-pyridin-2-ylamine] | 0.1 to 1 µM | 0.1 to 1 µM
COc1ccc2nc(-c3cc(-c4cnn(C5CCNCC5)c4)cnc3N)sc2c1 [Example 255, 3-(6-Methoxybenzothiazol-2-yl)-5-(1-piperidin-4-yl-1H-pyrazol-4-yl)-pyridin-2-ylamine] | 0.1 to 1 µM | 0.1 to 1 µM
